Measured values published in patent US20090023186A1, “USE OF VALPROIC ACID FOR ENHANCING PRODUCTION OF RECOMBINANT PROTEINS IN MAMMALIAN CELLS” (EXCELLGENE SA, priority 2007, published 2009).

Key:
[1] = test system: HEK293E cells; test: Stable cell lines, IgG batch titer by ELISA (Example 5); format: cell-based, Human; conditions: 4 mmol/l final VPA; stable mass culture; 5 days after VPA addition
Protocol: 20 million suspension-adapted HEK293E cells were resuspended in 1 ml of Ex-Cell 293 HEK 293 serum-free medium with 4 mmol/l L-glutamine (Cat. No. 14571C-1000M; Lot No. 6A0093; SAFC Biosciences, Lenexa, Kans., USA, “Ex-Cell” medium; note: “Ex-Cell” medium-as used herein-refers to a medium comprising 4 mmol/l L-glutamine) in a 50-ml filter tube each (TPP AG, Trasadingen, Switzerland; Cat. No. 87050, Lot 20050174). Then 50 μg plasmid DNA at a concentration of 1 μg/μl was added in each tube with the following composition 5% (2.5 μg) p-LC (SEQ ID NO: 1) 5% (2.5 μg) p-HC (SEQ ID NO: 3) 90% (45 μg) p-puro (SEQ ID NO: 13). Plasmid p-LC comprises the genetic information for the production of the light chain of an IgG antibody, plasmid p-HC comprises the genetic information for the production of the heavy chain of an IgG antibody, plasmid p-puro comprises the genetic information for the enzyme puromycin-N-acetyl-transferase, which is encoded by the pac gene, the puromycin resistance gene. […] In short, Goat anti-human kappa light chain IgG (Biosource) was used for coating the ELISA-plates, and with AP-conjugated goat anti-human gamma chain IgG (Biosource) the synthesized IgG1 was detected. […] Absorption was measured at 405 nm against 490 nm using a microplate reader (SPECTRAmaxTM340; Molecular Devices, Palo Alto, Calif., USA).

[2] = test system: CHO DG44 cells; test: Influence of temperature on IgG batch titer and comparison with sodium butyrate (Example 2); format: cell-based, Chinese Hamster; conditions: day 5 after transfection
Protocol: No. 14571C-[…]; Lot No. 6A0093; SAFC Biosciences, Lenexa, Kans., USA, “Ex-Cell” medium; note: “Ex-Cell” medium-as used herein-refers to a medium comprising 4 mmol/l L-glutamine) in a 50-ml filter tube each (TPP AG, Trasadingen, Switzerland; Cat. No. 87050, Lot 20050174). In a separate set, 10 million suspension-adapted CHO DG44 cells were resuspended in 0.5 ml of ProCHO5 serum-free medium with 4 mmol/[…] hypoxanthine and 0.194 g/l thymidine (BioWhittaker (Lonza), Belgium; Cat. No. BE12-[…]; Lot No. 7 MB0040; “ProCHO5” medium; note: “ProCHO5” medium-as used herein-refers to a medium comprising 4 mmol/[…] hypoxanthine and 0.194 g/l thymidine) in a 50-ml filter tube each (TPP AG, Trasadingen, Switzerland; Cat. No. 87050, Lot 20050174). Then 12.5 μg plasmid DNA at a concentration of 1 μg/μl was added in each tube with the following composition 50% (6.25 μg) p-LC (SEQ ID NO: 1) 50% (6.25 μg) p-HC (SEQ ID NO: 3). Plasmid p-LC comprises the genetic information for the production of the light chain of an IgG antibody, plasmid p-HC comprises the genetic information for the production of the heavy chain of an IgG antibody. The particular vector constructs used in the present invention can also be obtained from the inventors. The inventors can be contacted via e-mail at […]. Moreover, commercial services do exist that produce any desired nucleotide sequence even comprising several kilobase pairs including complete expression cassettes in plasmid backgrounds (e.g., Invitrogen, Carlsbad, USA; Geneart, Germany.) Thus, providing the genetic sequence information of the plasmids should enable one of ordinary skill in the art to order the plasmids of the present invention at one of the commercial services listed. After shortly mixing the DNA with the cells by gentle shaking, 25 μg of 25-kd linear polyethyleneimine (“PEI”; Polysciences, Eppelheim, Germany; [2]) were added at a concentration of 1 μg/μl to each of the tubes. After shortly mixing by gentle shaking, the filter tubes containing the cells together with the DNA and PEI were transferred into an orbital shaker (Kühner Shaker Cabinet ISF-4-W, “Kühner shaker”, Kühner AG, Birsfelden, Switzerland), and the cells were incubated for 4 hours at 37° C. in a 5% CO2 atmosphere under shaking at 180 rpm. After that time, 4.5 ml of Ex-Cell medium were added to each of the filter tubes containing HEK 293 cells and 4.5 ml of Pro-CHO5 were added to each of the filter tubes containing CHO DG44 cells. […] No. […] Sigma-Aldrich Chemie GmbH, Industriestrasse 25, CH-9471 Buchs SG) was added to the corresponding tubes at the corresponding final concentrations. The cells then were returned into the Kühner shaker. Half the tubes were incubated at 37° C. in a 5% CO2 atmosphere under shaking at 180 rpm, the other half was incubated at 31° C. […] The ELISA was performed as published in prior art. In short, Goat anti-human kappa light chain IgG (Biosource) was used for coating the ELISA-plates, and with AP-conjugated goat anti-human gamma chain IgG (Biosource) the synthesized IgG1 was detected. NPP was used as a substrate for the alkaline phosphatase. Absorption was measured at 405 nm against 490 nm using a microplate reader (SPECTRAmaxTM340; Molecular Devices, Palo Alto, Calif., USA).

[3] = 3.8 mmol/l VPA, relative to control = 1

Q: Which results are given for CCCC(CCC)C(=O)O [VPA, valproic acid]?
A: Batch titer HEK293E [1]: 47.8 ± 4.8 mg/L; Batch titer increase at 31° C. [2, 3]: 1.5 ± 0.1; Batch titer increase at 37° C. [2, 3]: 2.1 ± 0.1; performance compared with sodium butyrate (batch titer increase) ([2]; 31° C. and 37° C.): slightly better performance than sodium butyrate
